Measured values as given in ChEMBL document CHEMBL1201862, “PubChem BioAssay data set” (2004).
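Compound exposure: 48 hours, 5 concentrations, 96-well plates. Abbreviation: GI50, concentration required for 50% inhibition of growth.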 Calls of active or inactive are those of the source. Cut-off read from the data, not from the text of the source: active = GI50 up to about 1.1 µM and inactive = higher.

Columns and labels:
Assay in all cases: inhibition of tumour cell growth, NCI panel, 48 h
786-0 = test system: 786-0
A498 = test system: A498
A549 = test system: A549
ACHN = test system: ACHN
BT-549 = test system: BT-549
CAKI-1 = test system: CAKI-1
CCRF-CEM = test system: CCRF-CEM
COLO 205 = test system: COLO 205
DU-145 = test system: DU-145
EKVX = test system: EKVX
HCC 2998 = test system: HCC 2998
HCT-116 = test system: HCT-116
HCT-15 = test system: HCT-15
HOP-62 = test system: HOP-62
HOP-92 = test system: HOP-92
HT-29 = test system: HT-29
Hs-578T = test system: Hs-578T
IGROV-1 = test system: IGROV-1
K562 = test system: K562
KM12 = test system: KM12
LOX IMVI = test system: LOX IMVI
M14 = test system: M14
MCF7 = test system: MCF7
MDA-MB-231 = test system: MDA-MB-231
MDA-MB-435 = test system: MDA-MB-435
MDA-N = test system: MDA-N
MOLT-4 = test system: MOLT-4
Malme-3M = test system: Malme-3M
NCI-H226 = test system: NCI-H226
NCI-H23 = test system: NCI-H23
NCI-H460 = test system: NCI-H460
NCI-H522 = test system: NCI-H522
NCI/ADR-RES = test system: NCI/ADR-RES
OVCAR-3 = test system: OVCAR-3
OVCAR-4 = test system: OVCAR-4
OVCAR-5 = test system: OVCAR-5
OVCAR-8 = test system: OVCAR-8
PC-3 = test system: PC-3
RPMI-8226 = test system: RPMI-8226
RXF 393 = test system: RXF 393
SF-268 = test system: SF-268
SF-295 = test system: SF-295
SF-539 = test system: SF-539
SK-MEL-28 = test system: SK-MEL-28
SK-MEL-2 = test system: SK-MEL-2
SK-MEL-5 = test system: SK-MEL-5
SK-OV-3 = test system: SK-OV-3
SN12C = test system: SN12C
SNB-19 = test system: SNB-19
SNB-75 = test system: SNB-75
SR = test system: SR
SW-620 = test system: SW-620
T47D = test system: T47D
TK-10 = test system: TK-10
U-251 = test system: U-251
UACC-257 = test system: UACC-257
UACC-62 = test system: UACC-62
UO-31 = test system: UO-31
HL-60 = test system: HL-60

Which GI50 (786-0) does the source give for `Clc1nc(Cl)c(CBr)c(Cl)n1` here?
The GI50 was 2.24 µM (inactive).

What about the GI50 (A498) of the same molecule?
The GI50 was 18.1 µM (inactive).

What about the GI50 (A549) of the same molecule?
The GI50 was 16 µM (inactive).

What about the GI50 (ACHN) of the same molecule?
The GI50 was 4.84 µM (inactive).

What about the GI50 (BT-549) of the same molecule?
Its GI50 is 2.17 µM (inactive).

What about the GI50 (CAKI-1) of the same molecule?
The GI50 was 10.9 µM (inactive).

And the GI50 (CCRF-CEM)?
The GI50 was 0.427 µM (active).

What about the GI50 (COLO 205) of the same molecule?
The GI50 was 7.01 µM (inactive).

What about the GI50 (DU-145) of the same molecule?
The GI50 was 16.7 µM (inactive).

What about the GI50 (EKVX) of the same molecule?
Its GI50 is 22.1 µM (inactive).

What about the GI50 (HCC 2998) of the same molecule?
Its GI50 is 10.8 µM (inactive).

What about the GI50 (HCT-116) of the same molecule?
The GI50 was 2.48 µM (inactive).

What about the GI50 (HCT-15) of the same molecule?
The GI50 was 2.65 µM.

What about the GI50 (HOP-62) of the same molecule?
Its GI50 is 5.04 µM (inactive).

And the GI50 (HOP-92)?
The GI50 was 2.28 µM (inactive).

And the GI50 (HT-29)?
Its GI50 is 4.29 µM (inactive).

What about the GI50 (Hs-578T) of the same molecule?
Its GI50 is 3.8 µM (inactive).

What about the GI50 (IGROV-1) of the same molecule?
The GI50 was 4.41 µM (inactive).

What about the GI50 (K562) of the same molecule?
Its GI50 is 2 µM (inactive).

What about the GI50 (KM12) of the same molecule?
Its GI50 is 2.71 µM (inactive).

What about the GI50 (LOX IMVI) of the same molecule?
Its GI50 is 1.83 µM (inactive).

And the GI50 (M14)?
The GI50 was 2.91 µM (inactive).

What about the GI50 (MCF7) of the same molecule?
The GI50 was 5.37 µM (inactive).

And the GI50 (MDA-MB-231)?
The GI50 was 1.9 µM (inactive).

What about the GI50 (MDA-MB-435) of the same molecule?
The GI50 was 5.05 µM (inactive).

What about the GI50 (MDA-N) of the same molecule?
The GI50 was 3.25 µM (inactive).

What about the GI50 (MOLT-4) of the same molecule?
The GI50 was 1.45 µM (inactive).

What about the GI50 (Malme-3M) of the same molecule?
Its GI50 is 4.16 µM (inactive).

And the GI50 (NCI-H226)?
Its GI50 is 8.45 µM (inactive).

And the GI50 (NCI-H23)?
The GI50 was 14.6 µM (inactive).

And the GI50 (NCI-H460)?
The GI50 was 4.3 µM (inactive).

And the GI50 (NCI-H522)?
The GI50 was 1.5 µM (inactive).

And the GI50 (NCI/ADR-RES)?
The GI50 was 4.29 µM (inactive).

And the GI50 (OVCAR-3)?
Its GI50 is 5.45 µM (inactive).

And the GI50 (OVCAR-4)?
The GI50 was 6.34 µM (inactive).

What about the GI50 (OVCAR-5) of the same molecule?
Its GI50 is 3.22 µM (inactive).

And the GI50 (OVCAR-8)?
The GI50 was 3.27 µM (inactive).

And the GI50 (PC-3)?
Its GI50 is 6.19 µM (inactive).

And the GI50 (RPMI-8226)?
The GI50 was 0.867 µM (active).

And the GI50 (RXF 393)?
Its GI50 is 6.85 µM (inactive).

What about the GI50 (SF-268) of the same molecule?
Its GI50 is 8.02 µM (inactive).

What about the GI50 (SF-295) of the same molecule?
Its GI50 is 6.11 µM (inactive).

And the GI50 (SF-539)?
Its GI50 is 2.99 µM (inactive).

What about the GI50 (SK-MEL-28) of the same molecule?
The GI50 was 5.74 µM (inactive).

And the GI50 (SK-MEL-2)?
The GI50 was 8.65 µM (inactive).

What about the GI50 (SK-MEL-5) of the same molecule?
Its GI50 is 4.01 µM (inactive).

And the GI50 (SK-OV-3)?
Its GI50 is 15.2 µM (inactive).

What about the GI50 (SN12C) of the same molecule?
Its GI50 is 2.63 µM (inactive).

And the GI50 (SNB-19)?
Its GI50 is 16 µM (inactive).

What about the GI50 (SNB-75) of the same molecule?
The GI50 was 8.83 µM (inactive).

And the GI50 (SR)?
The GI50 was 1.74 µM (inactive).

What about the GI50 (SW-620) of the same molecule?
The GI50 was 1.89 µM (inactive).

And the GI50 (T47D)?
The GI50 was 13.5 µM (inactive).

What about the GI50 (TK-10) of the same molecule?
Its GI50 is 4.7 µM (inactive).

What about the GI50 (U-251) of the same molecule?
The GI50 was 4.06 µM (inactive).

What about the GI50 (UACC-257) of the same molecule?
Its GI50 is 15 µM (inactive).

And the GI50 (UACC-62)?
The GI50 was 5.08 µM (inactive).

And the GI50 (UO-31)?
The GI50 was 3.33 µM (inactive).

Which GI50 (786-0) does the source give for `CC(C)(C)OC(=O)NC(Cc1ccc(OCc2ccccc2)cn1)C(=O)NCc1ccccc1` (centres undefined) here?
Its GI50 is 27.1 µM (inactive).

And the GI50 (A498)?
The GI50 was 32.1 µM (inactive).

What about the GI50 (A549) of the same molecule?
The GI50 was 36.6 µM (inactive).

And the GI50 (ACHN)?
Its GI50 is 31.3 µM (inactive).

What about the GI50 (BT-549) of the same molecule?
Its GI50 is 20.7 µM (inactive).

What about the GI50 (CAKI-1) of the same molecule?
The GI50 was 28.6 µM (inactive).

And the GI50 (CCRF-CEM)?
Its GI50 is 12.4 µM (inactive).

What about the GI50 (COLO 205) of the same molecule?
The GI50 was 17.1 µM (inactive).

And the GI50 (DU-145)?
Its GI50 is 40.5 µM (inactive).

And the GI50 (EKVX)?
Its GI50 is 26.2 µM (inactive).

What about the GI50 (HCC 2998) of the same molecule?
Its GI50 is 34.2 µM (inactive).

And the GI50 (HCT-116)?
Its GI50 is 26.5 µM (inactive).

And the GI50 (HCT-15)?
Its GI50 is 24.6 µM.

What about the GI50 (HL-60) of the same molecule?
Its GI50 is 15.1 µM (inactive).

And the GI50 (HOP-62)?
The GI50 was 23.3 µM (inactive).

And the GI50 (HOP-92)?
The GI50 was 20 µM (inactive).

And the GI50 (HT-29)?
Its GI50 is 29.9 µM (inactive).

And the GI50 (Hs-578T)?
The GI50 was 29 µM (inactive).

What about the GI50 (IGROV-1) of the same molecule?
The GI50 was 32.3 µM (inactive).

And the GI50 (K562)?
The GI50 was 22.1 µM (inactive).

What about the GI50 (KM12) of the same molecule?
Its GI50 is 29.7 µM (inactive).

And the GI50 (LOX IMVI)?
The GI50 was 19.1 µM (inactive).

And the GI50 (M14)?
Its GI50 is 25.8 µM (inactive).

What about the GI50 (MCF7) of the same molecule?
Its GI50 is 29.5 µM (inactive).

What about the GI50 (MDA-MB-231) of the same molecule?
The GI50 was 24.6 µM (inactive).

And the GI50 (MDA-MB-435)?
The GI50 was 20.1 µM (inactive).

And the GI50 (MDA-N)?
The GI50 was 19.8 µM (inactive).

What about the GI50 (MOLT-4) of the same molecule?
The GI50 was 13.2 µM (inactive).

And the GI50 (Malme-3M)?
Its GI50 is 22.8 µM (inactive).

What about the GI50 (NCI-H23) of the same molecule?
Its GI50 is 17 µM (inactive).

What about the GI50 (NCI-H460) of the same molecule?
Its GI50 is 22.7 µM (inactive).

And the GI50 (NCI-H522)?
The GI50 was 17.1 µM (inactive).

And the GI50 (NCI/ADR-RES)?
Its GI50 is 16.7 µM (inactive).

What about the GI50 (OVCAR-3) of the same molecule?
The GI50 was 19.3 µM (inactive).

And the GI50 (OVCAR-5)?
The GI50 was 38.6 µM (inactive).

And the GI50 (OVCAR-8)?
Its GI50 is 26.3 µM (inactive).

What about the GI50 (PC-3) of the same molecule?
The GI50 was 20.4 µM (inactive).

What about the GI50 (RPMI-8226) of the same molecule?
Its GI50 is 16.3 µM (inactive).

What about the GI50 (RXF 393) of the same molecule?
Its GI50 is 27.9 µM (inactive).

And the GI50 (SF-268)?
Its GI50 is 23.6 µM (inactive).

And the GI50 (SF-295)?
Its GI50 is 21.2 µM (inactive).

What about the GI50 (SK-MEL-28) of the same molecule?
Its GI50 is 31.3 µM (inactive).

And the GI50 (SK-MEL-2)?
The GI50 was 14.3 µM (inactive).

What about the GI50 (SK-MEL-5) of the same molecule?
The GI50 was 13.3 µM (inactive).

What about the GI50 (SK-OV-3) of the same molecule?
The GI50 was 22.1 µM (inactive).

And the GI50 (SN12C)?
Its GI50 is 28.1 µM (inactive).

What about the GI50 (SNB-19) of the same molecule?
The GI50 was 49.9 µM (inactive).

And the GI50 (SNB-75)?
The GI50 was 27.1 µM (inactive).

What about the GI50 (SR) of the same molecule?
The GI50 was 10.1 µM (inactive).

What about the GI50 (SW-620) of the same molecule?
The GI50 was 31.3 µM (inactive).

What about the GI50 (T47D) of the same molecule?
The GI50 was 16.7 µM (inactive).

And the GI50 (TK-10)?
Its GI50 is 30.3 µM (inactive).

What about the GI50 (U-251) of the same molecule?
Its GI50 is 26.1 µM (inactive).

And the GI50 (UACC-257)?
Its GI50 is 16.9 µM (inactive).

What about the GI50 (UACC-62) of the same molecule?
The GI50 was 14.5 µM (inactive).

And the GI50 (UO-31)?
The GI50 was 34.7 µM (inactive).
